Assay results: PubChem BioAssay AID248 (DTP/NCI, 2004)
Several values for one entry are separate records, joined by “and”; a condition that tells them apart may be missing. Equal entries are not always repeated. Toxic doses and inconclusive results are not listed. Cut-off read from the data, not from the text of the source: active = T/C of 150% or more; inactive = T/C below 125%.

Tested on: L1210 leukemia ip in BDF1 mice, survival T/C
Experiment: NCI In Vivo Anticancer Drug Screen. Data for tumor model L1210 Leukemia (intraperitoneal) in B6D2F1 (BDF1) mice
Settings: endpoint: mean survival time, higher = longer survival
In short: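 Each compound was tested against a transplantable tumor grown in mice. The endpoint was survival, with treated animals benchmarked against vehicle controls as a simple ratio.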

[1] = dose: 100.0 mg/kg/injection, schedule: Q01DX009 (ip), vehicle: Klucel (hydroxypropylcellulose) (HPC)
[2] = dose: 100.0 mg/kg/injection, schedule: Q04DX003 (ip), vehicle: Klucel (hydroxypropylcellulose) (HPC)
[3] = dose: 100.0 mg/kg/injection, schedule: Q01DX009 (ip), vehicle: saline with Tween-80
[4] = dose: 200.0 mg/kg/injection, schedule: Q01DX009 (ip), vehicle: saline with Tween-80
[5] = dose: 200.0 mg/kg/injection, schedule: Q01DX009 (ip), vehicle: Klucel (hydroxypropylcellulose) (HPC)
[6] = dose: 400.0 mg/kg/injection, schedule: Q01DX009 (ip), vehicle: Klucel (hydroxypropylcellulose) (HPC)
[7] = dose: 200.0 mg/kg/injection, schedule: Q04DX003 (ip), vehicle: Klucel (hydroxypropylcellulose) (HPC)
[8] = dose: 400.0 mg/kg/injection, schedule: Q04DX003 (ip), vehicle: Klucel (hydroxypropylcellulose) (HPC)
[9] = dose: 100.0 mg/kg/injection, schedule: Q01DX001 (ip), vehicle: carboxymethylcellulose (CMC)
[10] = dose: 200.0 mg/kg/injection, schedule: Q01DX001 (ip), vehicle: carboxymethylcellulose (CMC)
[11] = dose: 50.0 mg/kg/injection, schedule: Q01DX001 (ip), vehicle: carboxymethylcellulose (CMC)
[12] = dose: 100.0 mg/kg/injection, schedule: Q04DX003 (ip), vehicle: saline with Tween-80
[13] = dose: 200.0 mg/kg/injection, schedule: Q04DX003 (ip), vehicle: saline with Tween-80
[14] = dose: 400.0 mg/kg/injection, schedule: Q04DX003 (ip), vehicle: saline with Tween-80
[15] = dose: 100.0 mg/kg/injection, schedule: Q01DX009 (ip), vehicle: saline
[16] = dose: 200.0 mg/kg/injection, schedule: Q01DX009 (ip), vehicle: saline

Measured: T/C

CC(=O)OC(=O)c1ccc2c(c1)C(=O)c1ccccc1C2=O
inactive: dose: 25.0 mg/kg/injection, schedule: Q01DX009 (ip), vehicle: Klucel (hydroxypropylcellulose) (HPC) 100 % of control | dose: 50.0 mg/kg/injection, schedule: Q01DX001 (ip), vehicle: Klucel (hydroxypropylcellulose) (HPC) 105 % of control | dose: 50.0 mg/kg/injection, schedule: Q01DX009 (ip), vehicle: Klucel (hydroxypropylcellulose) (HPC) 98 % of control | dose: 100.0 mg/kg/injection, schedule: Q01DX001 (ip), vehicle: Klucel (hydroxypropylcellulose) (HPC) 111 % of control | [1] 102 % of control | [2] 100 % of control | dose: 200.0 mg/kg/injection, schedule: Q01DX001 (ip), vehicle: Klucel (hydroxypropylcellulose) (HPC) 111 % of control | dose: 400.0 mg/kg/injection, schedule: Q01DX001 (ip), vehicle: Klucel (hydroxypropylcellulose) (HPC) 96 % of control and 105 % of control

CC(Br)C(=O)Nc1ccc(C(=O)O)c(O)c1 (stereo unspecified)
inactive: dose: 25.0 mg/kg/injection, schedule: Q01DX009 (ip), vehicle: saline with Tween-80 112 % of control | dose: 50.0 mg/kg/injection, schedule: Q01DX009 (ip), vehicle: saline with Tween-80 98 % of control | [3] 100 % of control and 107 % of control

CCOC(=O)C(C(C)=O)c1cc(NS(=O)(=O)c2ccccc2)ccc1O (stereo unspecified)
inactive: [3] 95 % of control | [4] 96 % of control | dose: 400.0 mg/kg/injection, schedule: Q01DX009 (ip), vehicle: saline with Tween-80 93 % of control

O=C(NCCCCCCNC(=O)Nc1cccc(C(F)(F)F)c1)Nc1cccc(C(F)(F)F)c1
inactive: [1] 97 % of control | [5] 92 % of control | [6] 92 % of control

CC(=O)Nc1ccc(S(=O)(=O)Nc2ccc(C(=O)O)cc2)cc1
inactive: [2] 100 % of control | [7] 87 % of control | [8] 92 % of control

CN(C)N=Nc1ccc(CCCC(=O)NN)cc1
inactive: dose: 18.0 mg/kg/injection, schedule: Q01DX009 (ip), vehicle: other 103 % of control | dose: 22.0 mg/kg/injection, schedule: Q01DX Z (ip), vehicle: carboxymethylcellulose (CMC) 114 % of control | dose: 28.0 mg/kg/injection, schedule: Q01DX009 (ip), vehicle: other 111 % of control | [9] 111 % of control | [10] 113 % of control

Nc1ncnc(N)n1
inactive: [11] 98 % of control | [9] 101 % of control | [10] 101 % of control

CSc1ccc(NC(=O)COc2ccccc2)cc1
inactive: [1] 102 % of control | [5] 98 % of control | [6] 98 % of control

CC(=O)CCc1ccc(Cl)cc1
inactive: dose: 50.0 mg/kg/injection, schedule: Q01DX001 (ip), vehicle: saline 101 % of control | dose: 100.0 mg/kg/injection, schedule: Q01DX001 (ip), vehicle: saline 107 % of control | dose: 100.0 mg/kg/injection, schedule: Q04DX002 (ip), vehicle: Klucel (hydroxypropylcellulose) (HPC) 105 % of control | dose: 200.0 mg/kg/injection, schedule: Q01DX001 (ip), vehicle: saline 107 % of control | dose: 200.0 mg/kg/injection, schedule: Q04DX002 (ip), vehicle: Klucel (hydroxypropylcellulose) (HPC) 105 % of control | dose: 400.0 mg/kg/injection, schedule: Q01DX001 (ip), vehicle: saline 106 % of control | dose: 400.0 mg/kg/injection, schedule: Q04DX002 (ip), vehicle: Klucel (hydroxypropylcellulose) (HPC) 105 % of control

O=C(CCCC(=O)OCC(F)(F)C(F)(F)C(F)(F)C(F)F)OCC(F)(F)C(F)(F)C(F)(F)C(F)F
inactive: [11] 102 % of control | [9] 100 % of control | [10] 100 % of control | dose: 400.0 mg/kg/injection, schedule: Q01DX001 (ip), vehicle: carboxymethylcellulose (CMC) 100 % of control

CCCCCCCCCCCCCCCC[n+]1ccc(C#N)cc1
inactive: dose: 1.25 mg/kg/injection, schedule: Q01DX009 (ip), vehicle: saline 89 % of control | dose: 2.5 mg/kg/injection, schedule: Q01DX009 (ip), vehicle: saline 97 % of control | dose: 2.5 mg/kg/injection, schedule: Q04DX003 (ip), vehicle: saline 97 % of control | dose: 5.0 mg/kg/injection, schedule: Q01DX009 (ip), vehicle: saline 94 % of control | dose: 5.0 mg/kg/injection, schedule: Q04DX003 (ip), vehicle: saline 101 % of control | dose: 10.0 mg/kg/injection, schedule: Q01DX001 (ip), vehicle: saline 90 % of control | dose: 10.0 mg/kg/injection, schedule: Q04DX003 (ip), vehicle: saline 94 % of control

CCCCCCCc1nc(/N=N/N(C)C)c(C(N)=O)[nH]1
inactive: [12] 101 % of control | [4] 91 % of control | [13] 98 % of control | [14] 110 % of control

CCOC(=O)/C(O)=C\c1ccc(OC)n[n+]1[O-]
inactive: dose: 35.0 mg/kg/injection, schedule: Q04DX002 (ip), vehicle: Klucel (hydroxypropylcellulose) (HPC) 104 % of control | dose: 70.0 mg/kg/injection, schedule: Q04DX002 (ip), vehicle: Klucel (hydroxypropylcellulose) (HPC) 104 % of control | dose: 140.0 mg/kg/injection, schedule: Q04DX002 (ip), vehicle: Klucel (hydroxypropylcellulose) (HPC) 104 % of control

C=C(C(=O)O)C(=O)O
inactive: dose: 50.0 mg/kg/injection, schedule: Q01DX009 (ip), vehicle: saline 102 % of control | [15] 116 % of control | [12] 97 % of control | [16] 100 % of control | [13] 106 % of control

COC(=O)C1CCC1(C#N)C(=O)OC (stereo unspecified)
inactive: [15] 93 % of control | dose: 100.0 mg/kg/injection, schedule: Q04DX003 (ip), vehicle: saline 98 % of control | [16] 92 % of control | dose: 200.0 mg/kg/injection, schedule: Q04DX003 (ip), vehicle: saline 98 % of control | dose: 400.0 mg/kg/injection, schedule: Q01DX009 (ip), vehicle: saline 109 % of control | dose: 400.0 mg/kg/injection, schedule: Q04DX003 (ip), vehicle: saline 106 % of control

O=C1c2cccc3cccc(c23)C(=O)N1CCc1ccccn1
inactive: [1] 91 % of control | [5] 92 % of control

CCn1c(C)cc(=O)n1-c1ccc([N+](=O)[O-])cc1
inactive: [2] 96 % of control | [7] 104 % of control | [8] 98 % of control

OCCSC(SCCO)=C(SCCO)SCCO
inactive: [1] 105 % of control | [2] 97 % of control | [5] 102 % of control | [7] 92 % of control | [6] 96 % of control | [8] 94 % of control

CC(=O)OC(CC[P+](c1ccccc1)(c1ccccc1)c1ccccc1)(C(=O)c1ccccc1)c1ccccc1 (stereo unspecified)
inactive: dose: 100.0 mg/kg/injection, schedule: Q01DX001 (ip), vehicle: saline with Tween-80 95 % of control

Cc1c(C)c(O)c(Br)c(C)c1O (tested in a mixture with another compound)
inactive: [12] 89 % of control

O=[N+]([O-])c1cc(S(=O)(=O)O)ccc1Cl
inactive: dose: 100.0 mg/kg/injection, schedule: Q04DX003 (ip), vehicle: carboxymethylcellulose (CMC) 100 % of control | [12] 98 % of control | dose: 200.0 mg/kg/injection, schedule: Q04DX003 (ip), vehicle: carboxymethylcellulose (CMC) 101 % of control | [13] 102 % of control | dose: 400.0 mg/kg/injection, schedule: Q04DX003 (ip), vehicle: carboxymethylcellulose (CMC) 97 % of control | [14] 101 % of control
